# In US20220062371A1, “LIGAND-DRUG-CONJUGATES AS SUBSTRATES FOR SELECTIVE CLEAVAGE BY THE EXOPEPTIDASE ACTIVITY OF CATHEPSIN B” (DEBIOPHARM RESEARCH & MANUFACTURING S.A., priority 2017, published 2022):
# Read-outs that look alike come from different tables or passages of the source. Positions of bridges follow the written chain, without caps; N, C: chain ends. Non-standard residues stand in square brackets, D forms with d. Residues, ends and D or L forms follow the SMILES beside them. Groups on a side chain read outwards from the residue. Chains are numbered I, II in the order given. *: point of attachment. DM1Mal(CH2)2CO = COc1cc2cc(c1Cl)N(C)C(=O)C[C@H](OC(=O)[C@H](C)N(C)C(=O)CCSC1CC(=O)N(CCC(=O)*)C1=O)[C@]1(C)O[C@H]1[C@H](C)[C@@H]1C[C@@](O)(NC(=O)O1)[C@H](OC)/C=C/C=C(\C)C2; X2 = CC(=O)N[C@@H](CSC1CC(=O)N(CCC(=O)*)C1=O)C(=O)O; Dolaproine = CO[C@@H]([C@@H]1CCCN1)[C@@H](C)C(=O)O; Dil = CC[C@H](C)[C@H](NC)[C@@H](CC(=O)O)OC; NMe2Val = CC(C)[C@@H](C(=O)*)N(C)C; Cit = NC(=O)NCCC[C@H](N)C(=O)O; PEG4 = NCCOCCOCCOCCOCCC(=O)O
# Target: T1, recombinant human Cathepsin B (Homo sapiens, UniProt P07858)
# T1 construct: purchased R&D Systems (Bio-Techne AG) 953-CY-010
# Experiment: Recombinant human Cathepsin B-induced cleavage (in vitro enzymatic cleavage assay, UHPLC-MS/MS)
# Type: biochemical
# Conditions: for half-life at 10 μM: human; for Ratio (T1/2 Compound/T1/2 Reference): reference Cys-MC-Val-Cit-PABC-MMAF; for cleavage rate compared to reference PABC compound (times faster): versus Cys-MC-Val-Cit-PABC-MMAF
# Description: Cat B-induced cleavage of the compounds of the present invention was evaluated according to the in vitro enzymatic cleavage assay using recombinant human Cathepsin B and UHPLC-MS/MS analysis as described below.
# Reference compounds Cys-MC-Val-Cit-PABC-MMAF and MMAF were used as positive controls.
# The in vitro enzymatic assay was conducted at 37° C. with the test compounds at a concentration of 10 μM (2.5 μM when the test compound is an antibody-drug conjugate) in the presence of activated recombinant human Cathepsin B enzyme at 2 μg/mL in a 25 mM MES buffer pH 5.0. The enzymatic cleavage reaction was stopped for each defined time point by mixing an equal volume of acetonitrile+0.1% FA containing an internal standard (warfarine at 8 μM).
# Analysis was conducted using a Waters Acquity UPLC System coupled to a Waters Xevo TQ triple quad mass spectrometer. UHPLC was conducted depending on the test compounds with a BEH C8 1.7 μm 100×2.1 mm or BEH C18 1.7 μm 50×2.1 mm or HSS T3 1.7 μm 50×2.1 mm columns heated at 45° C. or 50° C. and fitted with 2 μm insert filter pre-columns (available from Waters), and solvent systems A1 (H2O+0.1% FA) and B1 (acetonitrile+0.1% FA) at a flow rate of 0.6 mL/min and a 10-95% gradient of B1 over 1.9 min.
# MS/MS was performed using electrospray ionization (ESI) interface in positive mode and specific MRM transitions for each tested compound.
# [1] = pH 5, 10 μM test compound, Cathepsin B 2 μg/mL, 25 mM MES buffer pH 5.0, 37° C., read-out: T1/2 Compound
# [2] = 10 μM test compound, Cathepsin B 2 μg/mL, 25 mM MES buffer pH 5.0, 37° C., read-out: T1/2 Compound
Compound,half-life at 10 μM [1],"half-life at 10 μM (pH 5, text and figure legends, 10 μM test compound, read-out: t1/2 (Exo-Cat B-induced drug release study))",Ratio (T1/2 Compound/T1/2 Reference),cleavage rate compared to reference PABC compound (times faster),half-life at 10 μM [2],"Cat B-induced cleavage, in words"
"CC[C@H](C)[C@@H]([C@@H](CC(=O)N1CCC[C@H]1[C@H](OC)[C@@H](C)C(=O)N[C@@H](Cc1ccccc1)C(=O)NCCCC[C@H](NC(=O)[C@H](CCCCN)NC(=O)[C@H](Cc1ccccc1)NC(=O)CCOCCOCCOCCOCCNC(=O)CCN1C(=O)CC(SC[C@H](NC(C)=O)C(=O)O)C1=O)C(=O)N[C@@H](Cc1ccccc1)C(=O)O)OC)N(C)C(=O)[C@@H](NC(=O)[C@H](C(C)C)N(C)C)C(C)C (stereo partly drawn) [Compound 13, Ac-Cys-Mal-PEG4-Phe-Lys-Lys(AF)-Phe-OH] (I: {X2-PEG4}-FKKF-OH / II: NMe2Val-V[Dil][Dolaproine]F; amide I:3-II:C)",1.6 min,1.62 min,0.15,,,
"CC[C@H](C)[C@@H]([C@@H](CC(=O)N1CCC[C@H]1[C@H](OC)[C@@H](C)C(=O)N[C@@H](Cc1ccccc1)C(=O)N[C@@H](CCCNC(N)=O)C(=O)N[C@@H](CCCCNC(=O)CCOCCOCCOCCOCCNC(=O)CCN1C(=O)CC(SC[C@H](NC(C)=O)C(=O)O)C1=O)C(=O)N[C@@H](Cc1ccccc1)C(=O)O)OC)N(C)C(=O)[C@@H](NC(=O)[C@H](C(C)C)N(C)C)C(C)C (stereo partly drawn) [Compound 19, AF-Cit-Lys(PEG4-Mal-Cys-Ac)-Phe-OH] (NMe2Val-V[Dil][Dolaproine]F[Cit]K([PEG4-X2])F-OH)",1.1 min,,0.09,,,
"COc1cc2cc(c1Cl)N(C)C(=O)C[C@H](OC(=O)[C@H](C)N(C)C(=O)CCSC1CC(=O)N(C[C@H]3CC[C@H](C(=O)NCCCC[C@H](NC(=O)[C@H](CCCNC(N)=O)NC(=O)[C@H](Cc4ccccc4)NC(=O)CCOCCOCCOCCOCCOCCNC(=O)CN4C(=O)CC(SC[C@H](NC(C)=O)C(=O)O)C4=O)C(=O)N[C@@H](Cc4ccc(O)cc4)C(=O)O)CC3)C1=O)[C@]1(C)O[C@H]1[C@H](C)[C@@H]1C[C@@](O)(NC(=O)O1)[C@H](OC)/C=C/C=C(\C)C2 (stereo partly drawn) [Compound 27, Ac-Cys-Ma-PEG5-Phe-Cit-Lys(Mcc-DM1)-Tyr-OH]",0.06 min,,0.005,~2300 fold,,
"COc1cc2cc(c1Cl)N(C)C(=O)C[C@H](OC(=O)[C@H](C)N(C)C(=O)CCSC1CC(=O)N(CCC(=O)NCCCC[C@H](NC(=O)[C@H](CCCCN)NC(=O)[C@H](Cc3ccccc3)NC(=O)CCOCCOCCOCCOCCNC(=O)CCN3C(=O)CC(SC[C@H](NC(C)=O)C(=O)O)C3=O)C(=O)N[C@@H](Cc3ccccc3)C(=O)N[C@@H](Cc3ccccc3)C(=O)N[C@@H](CCCCN)C(=O)O)C1=O)[C@]1(C)O[C@H]1[C@H](C)[C@@H]1C[C@@](O)(NC(=O)O1)[C@H](OC)/C=C/C=C(\C)C2 (stereo partly drawn) [Compound 28, Ac-Cys-Mal-PEG4-Phe-Lys-Lys(Mal-DM1)-Phe-Phe-Lys-OH] ({X2-PEG4}-FKK(DM1Mal(CH2)2CO)FFK-OH)",,,,,0.3 min,
"COc1cc2cc(c1Cl)N(C)C(=O)C[C@H](OC(=O)[C@H](C)N(C)C(=O)CCSC1CC(=O)N(CCC(=O)NCCCC[C@H](NC(=O)[C@H](CCCCN)NC(=O)[C@H](Cc3ccccc3)NC(=O)[C@H](Cc3ccccc3)NC(=O)[C@H](CCCCNC(=O)CCN3C(=O)CC(SCCC(=O)N(C)[C@@H](C)C(=O)O[C@H]4CC(=O)N(C)c5cc(cc(OC)c5Cl)C/C(C)=C/C=C/[C@@H](OC)[C@@]5(O)C[C@H](OC(=O)N5)[C@@H](C)[C@@H]5O[C@@]45C)C3=O)NC(=O)[C@H](CCCCN)NC(=O)[C@H](Cc3ccccc3)NC(=O)CCOCCOCCOCCOCCNC(=O)CCN3C(=O)CC(SC[C@H](NC(C)=O)C(=O)O)C3=O)C(=O)N[C@@H](Cc3ccccc3)C(=O)O)C1=O)[C@]1(C)O[C@H]1[C@H](C)[C@@H]1C[C@@](O)(NC(=O)O1)[C@H](OC)/C=C/C=C(\C)C2 (stereo partly drawn) [Compound 29, Ac-Cys-Mal-PEG4-[Phe-Lys-Lys(Mal-DM1)-Phe]2-OH] ({X2-PEG4}-FKK(DM1Mal(CH2)2CO)FFKK(DM1Mal(CH2)2CO)F-OH)",,,0.23,~5 fold,2.4 min,
"CC[C@H](C)[C@@H]([C@@H](CC(=O)N1CCC[C@H]1[C@H](OC)[C@@H](C)C(=O)N[C@@H](Cc1ccccc1)C(=O)NCCCC[C@H](NC(=O)[C@H](CCCNC(=N)N)NC(=O)[C@H](CCCCNC(=O)CCN1C(=O)CC(SCCC(=O)N(C)[C@@H](C)C(=O)O[C@H]2CC(=O)N(C)c3cc(cc(OC)c3Cl)C/C(C)=C/C=C/[C@@H](OC)[C@@]3(O)C[C@H](OC(=O)N3)[C@@H](C)[C@@H]3O[C@@]23C)C1=O)NC(=O)[C@H](CCCNC(=N)N)NC(=O)[C@H](Cc1ccccc1)NC(=O)CCOCCOCCOCCOCCNC(=O)CCN1C(=O)CC(SC[C@H](NC(C)=O)C(=O)O)C1=O)C(=O)N[C@@H](Cc1ccccc1)C(=O)O)OC)N(C)C(=O)[C@@H](NC(=O)[C@H](C(C)C)N(C)C)C(C)C (stereo partly drawn) [Compound 30, Ac-Cys-Mal-PEG4-Phe-Arg-Lys(Mal-DM1)-Arg-Lys(AF)-Phe-OH] ({X2-PEG4}-FRK(DM1Mal(CH2)2CO)RK([Phe-Dolaproine-Dil-Val-NMe2Val])F-OH)",,,0.07,more than 10 fold,1.1 min,
"CC[C@H](C)[C@@H]([C@@H](CC(=O)N1CCC[C@H]1[C@H](OC)[C@@H](C)C(=O)N[C@@H](Cc1ccccc1)C(=O)N[C@@H](CCCNC(N)=O)C(=O)N[C@@H](CCCCNC(=O)CCN1C(=O)CC(SCCC(=O)N(C)[C@@H](C)C(=O)O[C@H]2CC(=O)N(C)c3cc(cc(OC)c3Cl)C/C(C)=C/C=C/[C@@H](OC)[C@@]3(O)C[C@H](OC(=O)N3)[C@@H](C)[C@@H]3O[C@@]23C)C1=O)C(=O)N[C@@H](Cc1ccccc1)C(=O)N[C@@H](CCCCNC(=O)CCOCCOCCOCCOCCNC(=O)CCN1C(=O)CC(SC[C@H](NC(C)=O)C(=O)O)C1=O)C(=O)N[C@@H](Cc1ccccc1)C(=O)O)OC)N(C)C(=O)[C@@H](NC(=O)[C@H](C(C)C)N(C)C)C(C)C (stereo partly drawn) [Compound 31, AF-Cit-Lys(Mal-DM1)-Phe-Lys(PEG4-Mal-Cys-Ac)-Phe-OH] (NMe2Val-V[Dil][Dolaproine]F[Cit]K(DM1Mal(CH2)2CO)FK([PEG4-X2])F-OH)",,,0.08,more than 10 fold,1.08 min,
"CC[C@H](C)[C@@H]([C@@H](CC(=O)N1CCC[C@H]1[C@H](OC)[C@@H](C)C(=O)N[C@@H](Cc1ccccc1)C(=O)N[C@@H](CCCNC(N)=O)C(=O)N[C@@H](CCCCn1cc(COC(=O)NCCCC[C@H](NC(=O)CCOCCOCCOCCOCCOCCNC(=O)CCN2C(=O)CC(SC[C@H](NC(C)=O)C(=O)O)C2=O)C(=O)NCCOCCOCCOCCOCCOCCC(=O)N[C@@H](CCCCNC(=O)OCc2cn(CCCC[C@H](NC(=O)[C@H](CCCNC(N)=O)NC(=O)[C@H](Cc3ccccc3)NC(=O)[C@H](C)[C@@H](OC)[C@@H]3CCCN3C(=O)C[C@@H](OC)[C@H]([C@@H](C)CC)N(C)C(=O)[C@@H](NC(=O)[C@H](C(C)C)N(C)C)C(C)C)C(=O)N[C@@H](Cc3ccccc3)C(=O)O)nn2)C(=O)NCC(N)=O)nn1)C(=O)N[C@@H](Cc1ccccc1)C(=O)O)OC)N(C)C(=O)[C@@H](NC(=O)[C@H](C(C)C)N(C)C)C(C)C (stereo partly drawn) [Compound 32, Ac-Cys-Mal-[PEG5-Lys(AF-Cit-Lys(Y)-Phe-OH)]2-Gly-NH2]",,,0.06,~20 fold,0.98 min,
Arg-PEG4-Phe-Arg-Glu(Sar-OCPT)-Arg-Phe-Arg-OH [Compound 16],,,,,,rapidly cleaved
Arg-PEG4-Phe-Arg-[Glu(Sar-OCPT)-Phe]2-OH [Compound 17],,,,,,rapidly released
Arg-PEG4-[Phe-Arg-Glu(Sar-OCPT)-Arg]2-OH [Compound 18],,,,,,rapidly released
